According to ChEMBL document CHEMBL3832053, “DailyMed|setid=94de983f-549b-42ed-9f40-b022aa3bef0f | TRANDOLAPRIL- trandolapril tablet|Carilion Materials Management”:
Where “and” joins values, the source holds several entries; their conditions need not be identical. Identical values can stand only once.

Tested on: Homo sapiens
Test: Pharmacokinetic parameters for Trandolapril or its active metabolite of Trandolaprilat, after oral or intravenous (IV) administration of Trandolapril.
Details: in vivo; for Total CL: iv

| Compound | Total CL [L/h] | CL renal (po) [L/h] | t1/2 (po) [h] | Excretion (po) | F (po) [%] | Protein binding (po) | t1/2 ss (po) [h] |
| --- | --- | --- | --- | --- | --- | --- | --- |
| CCOC(=O)[C@H](CCc1ccccc1)N[C@@H](C)C(=O)N1[C@H](C(=O)O)C[C@H]2CCCC[C@@H]21 [TRANDOLAPRIL] | 52 | 1 to 4 | 6 | – | – | – | – |
| C[C@H](N[C@@H](CCc1ccccc1)C(=O)O)C(=O)N1[C@H](C(=O)O)C[C@H]2CCCC[C@@H]21 [TRANDOLAPRILAT] | 7 | – | – | 66% and 33% | 70 | 94% and 65% | 22.5 |
